For test [1], the system named is Mus musculus. Kind of test: Evaluated for hypoxic survival activity in mice after intraperitoneal administration at 100 mg/kg dose; 55-80. Format: functional. Particulars: ip.
Test [2] deals with Mus musculus. Kind of test: The compound was evaluated for improvement of anoxic amnesia in mice after ip administration at 100 mg/kg dose; Inactive. Format: functional, organism-based. Details: dose 100 mg/kg.
Test [3] relates to Mus musculus. Kind of test: Evaluated for hypoxic survival activity in mice after intraperitoneal administration at 100 mg/kg dose; 30-95. Format: functional. Particulars: ip.
Test [4] concerns Mus musculus. Kind of test: Evaluated for hypoxic survival activity in mice after intraperitoneal administration at 10 mg/kg dose; 50-50. Particulars: ip. Format: functional.
Test [5] relates to Mus musculus. Kind of test: The compound was evaluated for improvement of anoxic amnesia in mice after ip administration at 10 mg/kg dose; 74-(-19). Format: functional. Particulars: route intraperitoneal.
The subject of test [6] is Mus musculus. Nature of the test: Evaluated for hypoxic survival activity in mice after intraperitoneal administration at 10 mg/kg dose. Particulars: ip. The class given is functional.
Test [7] deals with Mus musculus. Kind of test: Evaluated for hypoxic survival activity in mice after intraperitoneal administration at 0.125 mg/kg dose; 60-80. Format: functional. Particulars: ip.
The test system of test [8] is Mus musculus. Kind of test: The compound was evaluated for improvement of anoxic amnesia in mice after ip administration at 25 mg/kg dose. Format: functional. Particulars: route intraperitoneal.
The subject of test [9] is Mus musculus. Kind of test: Evaluated for hypoxic survival activity in mice after intraperitoneal administration at 10 mg/kg dose; 45-55. Format: functional. Particulars: ip.
Test [10] has as its system Mus musculus. Kind of test: Evaluated for hypoxic survival activity in mice after intraperitoneal administration at 100 mg/kg dose; 65-80. Particulars: ip. The class given is functional.
The subject of test [11] is Mus musculus. Kind of test: Evaluated for hypoxic survival activity in mice after intraperitoneal administration at 100 mg/kg dose; 15-50. Particulars: ip. The class given is functional.
The subject of test [12] is Mus musculus. Kind of test: Evaluated for hypoxic survival activity in mice after intraperitoneal administration at 25 mg/kg dose; 5-55. Format: functional. Particulars: ip.
For test [13], the system named is Mus musculus. Kind of test: Evaluated for hypoxic survival activity in mice after intraperitoneal administration at 100 mg/kg dose; 40-40. Format: functional. Particulars: ip.
Test [14] relates to Mus musculus. Kind of test: Evaluated for hypoxic survival activity in mice after intraperitoneal administration at 100 mg/kg dose; 45-70. The class given is functional. Particulars: ip.
Test [15] concerns Mus musculus. Kind of test: The compound was evaluated for improvement of anoxic amnesia in mice after ip administration at 50 mg/kg dose; 33-76. Format: functional. Particulars: route intraperitoneal.
Test [16] has as its system Mus musculus. Nature of the test: Evaluated for hypoxic survival activity in mice after po administration of 100 mg/kg dose. Format: functional.
For test [17], the system named is Mus musculus. Kind of test: The compound was evaluated for improvement of anoxic amnesia in mice after ip administration at 50-200 mg/kg dose; Inactive. Format: functional, organism-based.
The test system of test [18] is Mus musculus. Nature of the test: Evaluated for hypoxic survival activity in mice after intraperitoneal administration at 100 mg/kg dose; 35-50. The class given is functional. Particulars: ip.
Test [19] concerns Mus musculus. Kind of test: The compound was evaluated for improvement of anoxic amnesia in mice after ip administration at 50 mg/kg dose. Particulars: route intraperitoneal. Format: functional.
The test system of test [20] is Mus musculus. Nature of the test: Evaluated for hypoxic survival activity in mice after intraperitoneal administration at 25 mg/kg dose; 55-65. Format: functional. Particulars: ip.
For test [21], the system named is Mus musculus. Nature of the test: Evaluated for hypoxic survival activity in mice after intraperitoneal administration at 100 mg/kg dose. Format: functional. Particulars: ip.
In test [22] the test system is Mus musculus. Kind of test: Evaluated for hypoxic survival activity in mice after intraperitoneal administration at 100 mg/kg dose; 95-95. The class given is functional. Particulars: ip.
Test [23] concerns Mus musculus. Nature of the test: The compound was evaluated for improvement of anoxic amnesia in mice after ip administration at 50 mg/kg dose; 53, -8, 102. Format: functional. Particulars: route intraperitoneal.
Test [24] concerns Mus musculus. Nature of the test: Evaluated for hypoxic survival activity in mice after intraperitoneal administration at 10 mg/kg dose; 50-80. The class given is functional. Particulars: ip.
In test [25] the test system is Mus musculus. Kind of test: Evaluated for hypoxic survival activity in mice after intraperitoneal administration at 50 mg/kg dose; 35-50. The class given is functional. Particulars: ip.
In test [26] the test system is Mus musculus. Kind of test: The compound was evaluated for improvement of anoxic amnesia in mice after ip administration at 100 mg/kg dose. Particulars: route intraperitoneal. Format: functional.
The subject of test [27] is Mus musculus. Kind of test: Evaluated for hypoxic survival activity in mice after intraperitoneal administration at 50 mg/kg dose. Particulars: ip. Format: functional.
Test [28] deals with Mus musculus. Kind of test: The compound was evaluated for improvement of anoxic amnesia in mice after ip administration at 10 mg/kg dose; Inactive. The class given is functional, organism-based. Also on record: dose 10 mg/kg.
The subject of test [29] is Mus musculus. Kind of test: Evaluated for hypoxic survival activity in mice after intraperitoneal administration at 10 mg/kg dose; 40-55. The class given is functional. Particulars: ip.
The test system of test [30] is Mus musculus. Kind of test: The compound was evaluated for improvement of anoxic amnesia in mice after ip administration at 10 mg/kg dose. Format: functional. Particulars: route intraperitoneal.
Test [31] relates to Mus musculus. Kind of test: Evaluated for hypoxic survival activity in mice after intraperitoneal administration at 25 mg/kg dose; 25-55. Format: functional. Particulars: ip.
For test [32], the system named is Mus musculus. Kind of test: Evaluated for hypoxic survival activity in mice after intraperitoneal administration at 100 mg/kg dose; 5-45. The class given is functional. Particulars: ip.

Each structure is given as a SMILES string. Calls of active or inactive are those of the source. The rule behind the calls is not given here.

Here are results for 29 molecules from ChEMBL document CHEMBL1150470, “The synthesis and cognition enhancing effects of a series of dibenzoyl guanidines. Analogs of N,N-[[4-(aminocarbonyl)phenyl]carbonimidoyl]bis[benzamide]” (1992).

As for `NC(=O)c1ccc(N/C(=N\C(=O)c2ccc(F)cc2)NC(=O)c2cccc(F)c2)cc1`, the survival at 100 mg/kg in the test with Mus musculus [1] is 68%. The Improvement entry in the test with Mus musculus [2] is “inactive”.

For `NC(=O)c1ccc(N/C(=N\C(=O)c2ccccc2)NC(=O)c2cccc([N+](=O)[O-])c2)cc1`, the survival at 100 mg/kg with Mus musculus [3] is 60%.

In the test on Mus musculus [4], `COc1ccc(C(=O)N/C(=N/C(=O)c2ccccc2)Nc2ccc(C(N)=O)cc2)cc1` came in with a survival at 10 mg/kg of 50%. This molecule also displayed an Improvement in the test on Mus musculus [5] of 28%.

As for `NC(=O)c1ccc(N/C(=N\C(=O)c2ccc(F)cc2)NC(=O)c2cccc(Cl)c2)cc1`, the survival at 10 mg/kg in the test with Mus musculus [6] was 25%.

Regarding `CNC(=O)Oc1ccc2c(c1)[C@]1(C)CCN(C)[C@@H]1N2C` [PHYSOSTIGMINE], the survival at 0.125 mg/kg with Mus musculus [7] turned out to be 60%.

For `NC(=O)c1ccc(N/C(=N\C(=O)c2ccccc2)NC(=O)c2cccc(Br)c2)cc1`, in the test on Mus musculus [8], the Improvement is 118%. The survival at 10 mg/kg with Mus musculus [9] was 50%.

In the case of `COc1ccc(C(=O)/N=C(/NC(=O)c2ccc(OC)cc2)Nc2ccc(C(N)=O)cc2)cc1`, in the test on Mus musculus [6], the survival at 10 mg/kg turned out to be 15%.

As for `NC(=O)c1ccc(N/C(=N\C(=O)c2ccccc2)NC(=O)c2cccc(C(F)(F)F)c2)cc1`, the survival at 10 mg/kg in the test on Mus musculus [6] was 15%.

`COc1ccc(C(=O)/N=C(/NC(=O)c2cccc(Cl)c2)Nc2ccc(C(N)=O)cc2)cc1` gave a survival at 10 mg/kg with Mus musculus [6] of 15%.

For `CC(C)(C)c1ccc(C(=O)N/C(=N/C(=O)c2ccccc2)Nc2ccc(C(N)=O)cc2)cc1`, the survival at 100 mg/kg with Mus musculus [10] turned out to be 72%.

As to `Cc1ccc(C(=O)N/C(=N/C(=O)c2ccccc2)Nc2ccc(C(N)=O)cc2)cc1`, in the test on Mus musculus [6], the survival at 10 mg/kg was 5%.

The molecule `N#Cc1ccc(C(=O)N/C(=N/C(=O)c2ccccc2)Nc2ccc(C(N)=O)cc2)cc1` came in with a survival at 100 mg/kg in the test with Mus musculus [11] of 38%.

For the molecule `NC(=O)c1ccc(N/C(=N\C(=O)c2ccccc2)NC(=O)c2ccc(F)cc2)cc1`, the survival at 25 mg/kg with Mus musculus [12] was 35%.

`NC(=O)c1ccc(N/C(=N\C(=O)c2ccccc2)NC(=O)c2ccc(C(F)(F)F)cc2)cc1` displayed a survival at 100 mg/kg with Mus musculus [13] of 40%.

Turning to `NC(=O)c1ccc(N/C(=N\C(=O)c2ccccc2)NC(=O)c2ccccc2)cc1`, the values for the survival at 100 mg/kg in the test with Mus musculus [14] and in the test with Mus musculus [16] were 57% and 48%, respectively. The Improvement in the test on Mus musculus [15] is recorded as 50%.

In the test with Mus musculus [6], `NC(=O)c1ccc(N/C(=N\C(=O)c2ccccc2)NC(=O)c2ccccc2C(F)(F)F)cc1` showed a survival at 10 mg/kg of 5%.

Consider `COc1ccc(C(=O)/N=C(/NC(=O)c2ccc(F)cc2)Nc2ccc(C(N)=O)cc2)cc1`, for which the Improvement entry with Mus musculus [17] is “inactive”. This molecule also came in with a survival at 100 mg/kg with Mus musculus [18] of 42%.

Molecule `NC(=O)c1ccc(N/C(=N\C(=O)c2ccccc2)NC(=O)c2ccc(Br)cc2)cc1` came in with an Improvement with Mus musculus [19] of 12%. In the test with Mus musculus [20], this molecule yielded a survival at 25 mg/kg of 60%.

With `COc1ccc(C(=O)/N=C(/NC(=O)c2ccc(C)cc2)Nc2ccc(C(N)=O)cc2)cc1`, the Improvement entry in the test on Mus musculus [17] was “inactive”. The survival at 100 mg/kg in the test on Mus musculus [21] came out at 43%.

Turning to `NC(=O)c1ccc(N/C(=N\C(=O)c2ccccc2)NC(=O)c2cccc(Cl)c2)cc1`, the survival at 100 mg/kg in the test with Mus musculus [22] was 95%. In the test on Mus musculus [23], the Improvement is 49%.

In turn, `Cc1cccc(C(=O)N/C(=N/C(=O)c2ccccc2)Nc2ccc(C(N)=O)cc2)c1` showed a survival at 100 mg/kg in the test with Mus musculus [21] of 25%.

`CCOc1cccc(C(=O)N/C(=N/C(=O)c2ccccc2)Nc2ccc(C(N)=O)cc2)c1` yielded a survival at 10 mg/kg in the test on Mus musculus [24] of 67%.

`NC(=O)c1ccc(N/C(=N\C(=O)c2cccc(C(F)(F)F)c2)NC(=O)c2cccc(C(F)(F)F)c2)cc1` had a survival at 100 mg/kg in the test with Mus musculus [21] of 5%.

Regarding `Cc1cccc(C(=O)/N=C(/NC(=O)c2cccc(C)c2)Nc2ccc(C(N)=O)cc2)c1`, the survival at 50 mg/kg in the test on Mus musculus [25] stood at 40%. Further, in the test with Mus musculus [26], the Improvement is 20%.

The molecule `COc1ccc(C(=O)/N=C(/NC(=O)c2ccc(C(F)(F)F)cc2)Nc2ccc(C(N)=O)cc2)cc1` came in with a survival at 50 mg/kg in the test with Mus musculus [27] of 55%.

Consider `CN(C)CCOc1ccc(C(=O)N/C(=N/C(=O)c2ccccc2)Nc2ccc(C(N)=O)cc2)cc1`, for which the Improvement entry in the test with Mus musculus [28] is “inactive”. In addition, the survival at 10 mg/kg in the test with Mus musculus [29] was determined as 48%.

Molecule `COc1ccc(C(=O)/N=C(/NC(=O)c2cccc(C)c2)Nc2ccc(C(N)=O)cc2)cc1` displayed an Improvement with Mus musculus [30] of 28%. In the test with Mus musculus [9], this molecule had a survival at 10 mg/kg of 50%.

Consider `NC(=O)c1ccc(N/C(=N\C(=O)c2ccc(F)cc2)NC(=O)c2ccc(Br)cc2)cc1`, for which the survival at 25 mg/kg in the test with Mus musculus [31] amounted to 40%.

For `NC(=O)c1ccc(N/C(=N\C(=O)c2ccccc2)NC(=O)c2ccc([N+](=O)[O-])cc2)cc1`, the survival at 100 mg/kg in the test on Mus musculus [32] is 25%.
